Reference: US8629328B2 (Monsanto Technology LLC, priority 2006, dated 2014)
Read-outs that look alike come from different tables or passages of the source.

Tests used:
[1] = tested on: soybean plants transformed with the DMO-encoding polynucleotide construct (Events 1-4); settings: early pre-emergence; highest rate 5040 g/ha, 4.5 lb/acre, 9× labeled rate
Method: (§1) Transgenic soybean plants were obtained by Agrobacterium transformation of soybean cotyledonary nodes using standard procedures and a binary vector containing the DMO-encoding polynucleotide given as SEQ ID NO:7, which encodes the polypeptide of SEQ ID NO:8. Four transgenic soybean events were prepared and designated Events 1-4. […] Non-transgenic soybean plants were used as controls.
Transgenic and control soybean seeds were planted into 3.5-inch square plastic pots containing Redi-earth™ (Scotts-Siena Horticultural Products Co., Marysville, Ohio). […] The pots were placed on capillary matting in 35 inch×60 inch fiberglass watering trays for overhead and/or sub-irrigation for the duration of the test period so as to maintain optimum soil moisture for plant growth and were fertilized with Osmocote (14-14-14 slow release; Scotts-Siena Horticultural Products Co., Marysville, Ohio) at the rate of 100 gm/cu.ft. to sustain plant growth for the duration of greenhouse trials. […]
(§2) Treated plants in greenhouse trials were visually assessed at a particular day after treatment (DAT) for injury on a scale of 0 to 100 percent relative to untreated control plants, with zero representing “no” injury and 100% representing “complete” injury or death. Data were collected and analyzed using suitable statistical methods.

[2] = tested on: transgenic corn plants transformed with DNA constructs carrying DMO; settings: for Percentage brace root injury: 0.5 lb/a at V3 followed by 1 lb/a at V8
Description: This expression element contains first intron and flanking UTR exon sequences from the rice actin 1 gene and includes 12 nt of exon 1 at the 5′ end and 7 nt of exon 2 at the 3′ end), and a 3′UTR (e.g. TaHsp17). Nucleotide sequences/an or patent references for various expression elements are disclosed in co-pending application U.S. Ser. No. 60/891,675.
(§3) Transgenic corn plants were produced by the methods known in the art such as WO9506722 and US patent application 20040244075. […] Six events from each of the six constructs were used. […] The entire plot was fertilized uniformly to obtain an agronomically acceptable crop. A soil insecticide such as Force® 3G (Syngenta Crop Protection, Greensboro, N.C., USA) at 5 oz. per 1000 ft. of row for control of corn rootworm was applied at planting time. If black cutworm infestation was observed, POUNCE® 3.2EC at 4 to 8 oz. per acre rate (FMC Corporation, Philadelphia, Pa.) was used. In addition, an insecticide spray program was used to control all above ground lepidopteran pests including European corn borer, corn earworm, and fall armyworm. POUNCE® 3.2EC at 4 to 8 oz. per acre was applied every 3 weeks to control lepidopteran pests; about 4 applications were made. The plot was kept weed free with a pre-emergence application of a herbicide such as Harness® Xtra 5.6 L (Monsanto, St. Louis, Mo.) and Degree Xtra® (Monsanto, St. Louis, Mo.).
(§4) Brace root injury was evaluated visually by counting the number of plants in a row showing an “atypical” morphology of having the brace roots fused as compared to a typical morphology of “finger-like” structure.

[3] = tested on: transformed cotton plants comprising a DMO coding region
Description: Several DNA constructs carrying a DMO coding region as disclosed herein with a transit peptide (e.g., PsRbcS CTP, CTP1, CTP2) under the control of plant gene expression elements such as a promoter (e.g. PC1SV, FMV, or e35S), and a 3′UTR (e.g. E6; Accession #U30508) were produced and transformed into cotton (Gossypium hirsutum) as follows. Nucleotide sequences/and or patent references for various expression elements are disclosed in co-pending application U.S. Ser. No. 60/891,675. Media used are noted in Table 13.
Cotton transformation was performed, for instance as described according to U.S. Patent Application Publication 20040087030, via an embryogenic approach. Explants of cotton cv Coker 130 were grown in vitro and with a liquid suspension of Agrobacterium tumefaciens carrying a DNA construct of interest, using selection on kanamycin containing media. Putative transgenic plantlets were then transferred to soil to obtain mature cotton plants.

MARESTAIL (KY) Resistant = assay: Control of marestail by dicamba or glyphosate, treated at rosette leaf stage; type: in vivo, Conyza canadensis; settings: dicamba formulation 280 g/ha
Description: (§5) Marestail is one of the major weeds in a crop field. Marestail is effectively controlled by glyphosate, but the development of methods for controlling this common weed with other herbicides is important to minimize opportunities for herbicide tolerance to develop.

MARESTAIL (CA) Resistant = assay: as above; type: in vivo, Conyza canadensis; settings: dicamba formulation 280 g/ha
Description: as §5

[4] = tested on: soybean plants transformed with the DMO-encoding polynucleotide construct (Events 1-4)
Method: as §1
Transgenic and control soybean seeds were planted into 3.5-inch square plastic pots containing Redi-earth™ (Scotts-Siena Horticultural Products Co., Marysville, Ohio). […] The pots were placed on capillary matting in 35 inch×60 inch fiberglass watering trays for overhead and/or sub-irrigation for the duration of the test period so as to maintain optimum soil moisture for plant growth and were fertilized with Osmocote (14-14-14 slow release; Scotts-Siena Horticultural Products Co., Marysville, Ohio) at the rate of 100 gm/cu.ft. to sustain plant growth for the duration of greenhouse trials.
The plants were grown in greenhouses at 27°/21° C. day/night temperature with relative humidity between 25%-75% to simulate warm season growing conditions of late spring. A 14 h minimum photoperiod was provided with supplemental light at about 600 μE as needed.
as §2
The spray nozzle was kept at a height of about 16 inches above the top of the plant material for spraying. The spray volume was 10 gallons per acre or 93 liters per hectare.

[5] = tested on: corn inbreds 01CSI6 and LH244; settings: 0.5 lb/a at V3 followed by 1 lb/a at V8
Description: as §3, §4

SMILES: COc1c(Cl)ccc(Cl)c1C(=O)O [dicamba, 3,6-dichloro-o-anisic acid]
- injury to the transgenic plants [1]: less than 10%
- level of brace root injury ([2]; constructs coding for a DMO linked to a CTP (pMON73716, pMON73700, pMON73715, pMON73703)): lower level of brace root injury
- level of brace root injury ([2]; constructs coding for a DMO without CTP (pMON73699, pMON73704)): higher level of brace root injury
- Percentage brace root injury ([2]; pMON73699 (PC1SV/I-OsAct1/DMO-Wmc/TaHsp17)): 93.2%
- Percentage brace root injury ([2]; pMON73700 (PC1SV/I-OsAct1/CTP1/DMO-Wmc/TaHsp17)): 74.4%
- Percentage brace root injury ([2]; pMON73703 (e35S/I-OsAct1/CTP1/DMO-Wmc/TaHsp17)): 68.8%
- Percentage brace root injury ([2]; pMON73704 (e35S/I-OsAct1/DMO-Wmc/TaHsp17)): 91.3%
- Percentage brace root injury ([2]; pMON73715 (PC1SV/I-OsAct1/CTP2syn/DMO-Wmc/TaHsp17)): 68.2%
- Percentage brace root injury ([2]; pMON73716 (PC1SV/I-OsAct1/TaWaxy/DMO-Wmc/TaHsp17)): 78.8%
- tolerance to subsequent post-emergent treatment ([3]; 0.5 lb/acre at V3-4 followed by 1 or 2 lb/acre at V5 or later stages): still tolerant
- tolerance ([3]; post-emergent at V4-5 growth stage, 561 g ae/ha (0.5 lb/a)): tolerant
- tolerance of R1 transgenic seeds and plants ([3]; pre-emergence or pre-emergence and post-emergence dicamba treatment): tolerant
- % Injury (21 DAT) (MARESTAIL (KY) Resistant): about 91%
- % Injury (21 DAT) (MARESTAIL (CA) Resistant): about 83%
- injury to transgenic dicamba tolerant plants ([4]; approximately 2× rate of application of 1122 g/ha): less than 2%
- injury to transgenic plants ([4]; at sowing + post-emergence, overall dicamba rate 10080 g/ha, 9 lb/acre, 18× labeled rate): less than 20%
- injury to transgenic events ([4]; late pre-emergence + post-emergence, overall 10080 g/ha, 9 lb/acre, 18× labeled rate): less than 20%
- injury in the transgenic events ([4]; late pre-emergence at soil cracking, 5040 g/ha, 4.5 lb/acre, 9× labeled rate): less than 5%
- Percentage brace root injury ([5]; 01CSI6, susceptible inbred to dicamba): 95.4%
- Percentage brace root injury ([5]; LH244, resistant inbred to dicamba): 93.8%
